PubChem BioAssay AID296 (DTP/NCI, 2004)
“And” between values parts separate entries of the source, which are not always exact repeats. Identical values can stand only once. Inconclusive results are not listed.

Tested on: MX-1 breast xenograft, nude mice, tumor weight T/C
Experiment: NCI In Vivo Anticancer Drug Screen. Data for tumor model Human Mammary Carcinoma MX-1 Xenograft (intrarenal inoculation) in NU/NU Swiss (nude) mice
Details: endpoint: mean tumor weight change, higher = larger tumour
In short: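 Tumor-bearing mice were treated with test compound alongside a vehicle-treated control group. Survival or tumor size was measured, and activity is expressed as the treated-group value divided by the control-group value.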

[1] = dose: 200.0 mg/kg/injection, schedule: Q01DX010 (sc), vehicle: saline with Tween-80
[2] = dose: 400.0 mg/kg/injection, schedule: Q01DX010 (sc), vehicle: saline with Tween-80
[3] = dose: 800.0 mg/kg/injection, schedule: Q01DX010 (sc), vehicle: saline with Tween-80
[4] = dose: 300.0 mg/kg/injection, schedule: Q04DX003 (sc), vehicle: saline with Tween-80
[5] = dose: 600.0 mg/kg/injection, schedule: Q04DX003 (sc), vehicle: saline with Tween-80
[6] = dose: 1200.0 mg/kg/injection, schedule: Q04DX003 (sc), vehicle: saline with Tween-80
[7] = dose: 50.0 mg/kg/injection, schedule: Q04DX003 (sc), vehicle: saline with Tween-80
[8] = dose: 25.0 mg/kg/injection, schedule: Q04DX003 (sc), vehicle: saline with Tween-80
[9] = dose: 50.0 mg/kg/injection, schedule: Q01DX010 (sc), vehicle: saline with Tween-80
[10] = dose: 100.0 mg/kg/injection, schedule: Q01DX010 (sc), vehicle: saline with Tween-80
[11] = dose: 300.0 mg/kg/injection, schedule: Q04DX003 (sc), vehicle: Klucel (hydroxypropylcellulose) (HPC)
[12] = dose: 600.0 mg/kg/injection, schedule: Q04DX003 (sc), vehicle: Klucel (hydroxypropylcellulose) (HPC)
[13] = dose: 1200.0 mg/kg/injection, schedule: Q04DX003 (sc), vehicle: Klucel (hydroxypropylcellulose) (HPC)
[14] = dose: 2400.0 mg/kg/injection, schedule: Q04DX003 (sc), vehicle: Klucel (hydroxypropylcellulose) (HPC)

SMILES: CC(=O)OCC1OC(OC2=C(CC=C(C)C)C(=O)c3ccccc3C2=O)C(OC(C)=O)C(OC(C)=O)C1OC(C)=O (stereo unspecified)
- T/C (dose: 400.0 mg/kg/injection, schedule: Q01DX010 (sc), vehicle: Klucel (hydroxypropylcellulose) (HPC)): 194 % of control
- T/C (dose: 800.0 mg/kg/injection, schedule: Q01DX010 (sc), vehicle: Klucel (hydroxypropylcellulose) (HPC)): 52 % of control

SMILES: C[PH+](C)C.C[PH+](C)C.[Au]
- T/C (dose: 5.0 mg/kg/injection, schedule: Q04DX003 (sc), vehicle: suspension in saline): 157 % of control
- T/C (dose: 10.0 mg/kg/injection, schedule: Q04DX003 (sc), vehicle: suspension in saline): 156 % of control
- T/C (dose: 20.0 mg/kg/injection, schedule: Q04DX003 (sc), vehicle: suspension in saline): 160 % of control

SMILES: O=C(O)CC(NC(=O)CP(=O)(O)O)C(=O)O (stereo unspecified)
- T/C (dose: 50.0 mg/kg/injection, schedule: Q01DX010 (sc), vehicle: saline): 117 % of control
- T/C (dose: 100.0 mg/kg/injection, schedule: Q01DX010 (sc), vehicle: saline): 25 % of control and 34 % of control

SMILES: Cc1ccccc1SSc1ccccc1C
- T/C [1]: 88 % of control
- T/C [2]: 96 % of control
- T/C [3]: 91 % of control

SMILES: O=C1SC(c2ccccc2)=S=C1c1ccccc1
- T/C [4]: 102 % of control
- T/C [5]: 78 % of control
- T/C [6]: 109 % of control
- T/C (dose: 2400.0 mg/kg/injection, schedule: Q04DX003 (sc), vehicle: saline with Tween-80): 48 % of control

SMILES: C=C1C(=O)OCC1C(=O)O (stereo unspecified)
- T/C (dose: 50.0 mg/kg/injection, schedule: Q04DX003 (sc), vehicle: suspension in saline): 74 % of control
- T/C (dose: 100.0 mg/kg/injection, schedule: Q04DX003 (sc), vehicle: suspension in saline): 94 % of control
- T/C (dose: 200.0 mg/kg/injection, schedule: Q04DX003 (sc), vehicle: suspension in saline): 50 % of control

SMILES: NC(=O)c1cc(Cl)nc2nc(Cl)nc(N)c12
- T/C (dose: 150.0 mg/kg/injection, schedule: Q04DX003 (ip), vehicle: saline with Tween-80): 112 % of control
- T/C (dose: 300.0 mg/kg/injection, schedule: Q04DX003 (ip), vehicle: saline with Tween-80): 108 % of control
- T/C (dose: 600.0 mg/kg/injection, schedule: Q04DX003 (ip), vehicle: saline with Tween-80): 90 % of control
- T/C (dose: 1200.0 mg/kg/injection, schedule: Q04DX003 (ip), vehicle: saline with Tween-80): 93 % of control

SMILES: COC(=O)C(N)Cc1ccc(O)c(O)c1 (stereo unspecified)
- T/C (dose: 300.0 mg/kg/injection, schedule: Q04DX003 (sc), vehicle: saline): 106 % of control
- T/C (dose: 600.0 mg/kg/injection, schedule: Q04DX003 (sc), vehicle: saline): 101 % of control
- T/C (dose: 1200.0 mg/kg/injection, schedule: Q04DX003 (sc), vehicle: saline): 105 % of control

SMILES: C=CS(C=C)=NS(=O)(=O)c1ccc(C)cc1
- T/C (dose: 18.75 mg/kg/injection, schedule: Q04DX003 (sc), vehicle: Klucel (hydroxypropylcellulose) (HPC)): 64 % of control
- T/C (dose: 37.5 mg/kg/injection, schedule: Q04DX003 (sc), vehicle: Klucel (hydroxypropylcellulose) (HPC)): 87 % of control

SMILES: CC(=O)N(C)c1ccc(Nc2cc(C)[nH]c3ccc4ncnc4c23)cc1
- T/C [7]: 102 % of control
- T/C (dose: 100.0 mg/kg/injection, schedule: Q04DX003 (sc), vehicle: saline with Tween-80): 84 % of control
- T/C (dose: 200.0 mg/kg/injection, schedule: Q04DX003 (sc), vehicle: saline with Tween-80): 69 % of control

SMILES: CCOC(=O)Nc1cc2c(c(N)n1)N=C(c1ccccc1)CN2
- T/C (dose: 6.25 mg/kg/injection, schedule: Q04DX003 (sc), vehicle: saline with Tween-80): 80 % of control
- T/C (dose: 12.5 mg/kg/injection, schedule: Q04DX003 (sc), vehicle: saline with Tween-80): 83 % of control
- T/C [8]: 68 % of control

SMILES: Oc1ccc(SCc2ccc(NCc3ccccc3)cc2)cc1
- T/C (dose: 25.0 mg/kg/injection, schedule: Q01DX010 (sc), vehicle: saline with Tween-80): 104 % of control
- T/C [9]: 46 % of control
- T/C [10]: 92 % of control
- T/C [1]: 74 % of control
- T/C [2]: 55 % of control
- T/C [3]: 94 % of control

SMILES: C[Si](C)(C)OSc1ccccc1[N+](=O)[O-]
- T/C [11]: 92 % of control
- T/C [12]: 95 % of control
- T/C [13]: 80 % of control
- T/C [14]: 107 % of control

SMILES: Cc1ncc([N+](=O)[O-])n1CCSC(N)=O
- T/C [9]: 103 % of control
- T/C [10]: 15 % of control
- T/C (dose: 200.0 mg/kg/injection, schedule: Q01DX009 (sc), vehicle: saline with Tween-80): 17 % of control
- T/C (dose: 400.0 mg/kg/injection, schedule: Q01DX009 (sc), vehicle: saline with Tween-80): 42 % of control
- T/C [2]: 77 % of control and 83 % of control and 86 % of control
- T/C (dose: 800.0 mg/kg/injection, schedule: Q01DX009 (sc), vehicle: saline with Tween-80): 5 % of control

SMILES: CCCCCCCCCCS(=O)CC(CO)NC(=O)/C=C/c1c(C)[nH]c(=O)[nH]c1=O (stereo unspecified)
- T/C (dose: 9.38 mg/kg/injection, schedule: Q04DX003 (sc), vehicle: distilled water + Tween-80): 88 % of control
- T/C (dose: 18.75 mg/kg/injection, schedule: Q04DX003 (sc), vehicle: distilled water + Tween-80): 113 % of control
- T/C (dose: 37.5 mg/kg/injection, schedule: Q04DX003 (sc), vehicle: distilled water + Tween-80): 46 % of control

SMILES: CCCN1COC(OCC)C(C)(C)C1 (stereo unspecified)
- T/C [4]: 98 % of control
- T/C [5]: 94 % of control
- T/C [6]: 73 % of control

SMILES: N[C@@H](Cc1ccc(N(CCCl)CCCl)cc1)C(=O)O
- T/C (dose: 1.5 mg/kg/injection, schedule: Q04DX003 (sc), vehicle: suspension in saline): 23 % of control and 34 % of control
- T/C (dose: 2.0 mg/kg/injection, schedule: Q01DX010 (ip), vehicle: saline): -42 % of control and -36 % of control
- T/C (dose: 3.0 mg/kg/injection, schedule: Q04DX003 (sc), vehicle: suspension in saline): 4 % of control and 8 % of control
- T/C (dose: 3.33 mg/kg/injection, schedule: Q04DX003 (ip), vehicle: saline): -15 % of control
- T/C (dose: 3.33 mg/kg/injection, schedule: Q04DX003 (sc), vehicle: saline): 7 % of control
- T/C (dose: 4.0 mg/kg/injection, schedule: Q01DX010 (ip), vehicle: saline): -91 % of control
- T/C (dose: 4.0 mg/kg/injection, schedule: Q01DX010 (sc), vehicle: suspension in saline): -100 % of control
- T/C (dose: 6.0 mg/kg/injection, schedule: Q04DX003 (sc), vehicle: suspension in saline): -72 % of control and -58 % of control
- T/C (dose: 6.65 mg/kg/injection, schedule: Q04DX003 (ip), vehicle: saline): -87 % of control
- T/C (dose: 6.65 mg/kg/injection, schedule: Q04DX003 (sc), vehicle: saline): -51 % of control
- T/C (dose: 12.0 mg/kg/injection, schedule: Q04DX003 (sc), vehicle: saline): -100 % of control
- T/C (dose: 12.0 mg/kg/injection, schedule: Q04DX003 (sc), vehicle: suspension in saline): -100 % of control

SMILES: C1CN(P2(N3CC3)=NP(N3CC3)(N3CC3)=NP(N3CC3)(N3CC3)=N2)CCO1 (stereo unspecified)
- T/C (dose: 12.5 mg/kg/injection, schedule: Q04DX003 (sc), vehicle: saline): 36 % of control
- T/C (dose: 25.0 mg/kg/injection, schedule: Q04DX003 (sc), vehicle: saline): 9 % of control
- T/C (dose: 50.0 mg/kg/injection, schedule: Q04DX003 (sc), vehicle: saline): -77 % of control and -68 % of control (2×)
- T/C (dose: 100.0 mg/kg/injection, schedule: Q04DX003 (sc), vehicle: saline): -93 % of control

SMILES: COc1nc(=O)n(C2C=CC(=O)O2)cc1F (stereo unspecified)
- T/C (dose: 75.0 mg/kg/injection, schedule: Q04DX003 (sc), vehicle: Klucel (hydroxypropylcellulose) (HPC)): 116 % of control

SMILES: OCCOCCN1CCN(CCCN2c3ccccc3Sc3ccc(C(F)(F)F)cc32)CC1
- T/C (dose: 3.0 mg/kg/injection, schedule: Q01DX010 (sc), vehicle: saline): 111 % of control
- T/C (dose: 24.0 mg/kg/injection, schedule: Q01DX010 (sc), vehicle: saline): 41 % of control and 55 % of control
- T/C (dose: 48.0 mg/kg/injection, schedule: Q01DX010 (sc), vehicle: saline): 39 % of control

SMILES: COc1ccc(/C=C/C(=O)c2cc(C(=O)O)c(OC)cc2OC)cc1OC
- T/C (dose: 300.0 mg/kg/injection, schedule: Q04DX003 (sc), vehicle: suspension in saline): 99 % of control

SMILES: C=C1N(C)c2ccccc2C1(C)C
- T/C [8]: 100 % of control
- T/C [7]: 75 % of control

SMILES: Cc1c(-c2ccc(C3CCCCC3)cc2)nc2ccc(F)cc2c1C(=O)O
- T/C [11]: 86 % of control
- T/C [12]: 75 % of control
- T/C [13]: 80 % of control
- T/C [14]: 96 % of control
